Values of other authors in patent publication US9119854B2, “Methods for treating cancer using combination therapy” (CELGENE CORPORATION, priority 2013, dated 2015).

Legend:
[1] = target: CRBN (Homo sapiens, UniProt Q96SW2); details: in vitro; Ito et al., Science 2010
[2] = target: BTK (Homo sapiens, UniProt Q06187); details: enzymatic and cellular assays; the '610 publication
[3] = test system: B-cell

Sequence of BTK (Q06187 whole entry, species assumed): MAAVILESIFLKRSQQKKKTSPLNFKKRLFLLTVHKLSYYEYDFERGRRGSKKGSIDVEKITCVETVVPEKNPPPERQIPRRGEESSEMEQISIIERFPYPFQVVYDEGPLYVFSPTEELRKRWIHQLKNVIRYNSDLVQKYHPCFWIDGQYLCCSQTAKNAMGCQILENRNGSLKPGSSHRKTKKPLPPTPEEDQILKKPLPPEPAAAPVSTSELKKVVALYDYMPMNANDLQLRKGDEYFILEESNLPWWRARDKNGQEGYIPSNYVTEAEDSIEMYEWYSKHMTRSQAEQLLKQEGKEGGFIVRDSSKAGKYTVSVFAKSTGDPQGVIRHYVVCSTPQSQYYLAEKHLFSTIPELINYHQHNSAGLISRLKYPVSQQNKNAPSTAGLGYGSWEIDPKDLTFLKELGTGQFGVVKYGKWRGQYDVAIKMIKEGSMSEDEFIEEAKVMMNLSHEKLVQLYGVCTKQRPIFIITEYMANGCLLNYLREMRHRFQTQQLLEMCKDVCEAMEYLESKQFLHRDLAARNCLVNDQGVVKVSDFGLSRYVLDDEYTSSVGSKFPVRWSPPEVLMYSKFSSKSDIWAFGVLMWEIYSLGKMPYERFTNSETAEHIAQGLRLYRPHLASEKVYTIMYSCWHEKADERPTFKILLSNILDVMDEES
Sequence of CRBN (Q96SW2 whole entry): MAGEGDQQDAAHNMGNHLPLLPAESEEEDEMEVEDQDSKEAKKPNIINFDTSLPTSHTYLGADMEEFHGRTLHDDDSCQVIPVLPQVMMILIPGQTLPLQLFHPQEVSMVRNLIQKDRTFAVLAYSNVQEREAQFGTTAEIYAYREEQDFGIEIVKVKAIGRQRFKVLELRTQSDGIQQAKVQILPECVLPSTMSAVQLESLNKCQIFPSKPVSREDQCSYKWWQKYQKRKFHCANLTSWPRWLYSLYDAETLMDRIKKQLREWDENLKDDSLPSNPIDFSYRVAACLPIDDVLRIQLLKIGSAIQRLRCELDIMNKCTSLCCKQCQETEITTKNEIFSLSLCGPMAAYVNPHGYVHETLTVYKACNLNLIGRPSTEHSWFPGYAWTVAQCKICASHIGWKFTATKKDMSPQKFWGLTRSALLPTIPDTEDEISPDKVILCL
Sequence of CRBN (Q16531 whole entry partner): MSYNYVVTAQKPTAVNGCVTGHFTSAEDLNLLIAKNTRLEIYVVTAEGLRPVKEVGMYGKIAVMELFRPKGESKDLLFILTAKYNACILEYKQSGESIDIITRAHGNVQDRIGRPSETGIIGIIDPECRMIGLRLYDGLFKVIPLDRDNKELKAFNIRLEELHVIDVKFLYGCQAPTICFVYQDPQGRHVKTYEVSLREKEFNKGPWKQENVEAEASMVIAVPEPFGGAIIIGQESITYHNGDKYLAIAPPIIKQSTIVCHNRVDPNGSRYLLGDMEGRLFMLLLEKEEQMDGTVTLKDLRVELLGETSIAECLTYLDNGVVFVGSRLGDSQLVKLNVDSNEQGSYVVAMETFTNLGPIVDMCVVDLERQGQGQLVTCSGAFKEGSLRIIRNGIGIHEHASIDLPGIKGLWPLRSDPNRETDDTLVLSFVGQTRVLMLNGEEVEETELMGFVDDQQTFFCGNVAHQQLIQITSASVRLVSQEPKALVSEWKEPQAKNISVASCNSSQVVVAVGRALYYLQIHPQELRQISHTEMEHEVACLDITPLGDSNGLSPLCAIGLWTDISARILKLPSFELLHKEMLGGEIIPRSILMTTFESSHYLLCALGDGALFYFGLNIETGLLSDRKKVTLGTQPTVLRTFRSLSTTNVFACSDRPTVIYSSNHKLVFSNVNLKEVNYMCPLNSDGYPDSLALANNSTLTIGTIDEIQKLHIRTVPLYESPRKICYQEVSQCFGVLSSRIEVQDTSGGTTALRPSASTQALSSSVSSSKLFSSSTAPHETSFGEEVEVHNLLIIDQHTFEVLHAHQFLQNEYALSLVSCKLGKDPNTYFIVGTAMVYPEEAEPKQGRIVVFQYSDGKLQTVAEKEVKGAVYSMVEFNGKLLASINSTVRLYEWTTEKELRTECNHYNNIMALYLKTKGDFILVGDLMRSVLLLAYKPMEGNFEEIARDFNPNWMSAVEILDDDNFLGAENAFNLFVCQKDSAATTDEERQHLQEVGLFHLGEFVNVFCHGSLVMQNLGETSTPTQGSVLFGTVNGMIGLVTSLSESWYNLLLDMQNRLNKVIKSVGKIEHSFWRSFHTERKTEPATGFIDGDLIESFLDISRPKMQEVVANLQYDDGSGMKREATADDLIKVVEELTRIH
Sequence of CRBN (Q13619 whole entry partner): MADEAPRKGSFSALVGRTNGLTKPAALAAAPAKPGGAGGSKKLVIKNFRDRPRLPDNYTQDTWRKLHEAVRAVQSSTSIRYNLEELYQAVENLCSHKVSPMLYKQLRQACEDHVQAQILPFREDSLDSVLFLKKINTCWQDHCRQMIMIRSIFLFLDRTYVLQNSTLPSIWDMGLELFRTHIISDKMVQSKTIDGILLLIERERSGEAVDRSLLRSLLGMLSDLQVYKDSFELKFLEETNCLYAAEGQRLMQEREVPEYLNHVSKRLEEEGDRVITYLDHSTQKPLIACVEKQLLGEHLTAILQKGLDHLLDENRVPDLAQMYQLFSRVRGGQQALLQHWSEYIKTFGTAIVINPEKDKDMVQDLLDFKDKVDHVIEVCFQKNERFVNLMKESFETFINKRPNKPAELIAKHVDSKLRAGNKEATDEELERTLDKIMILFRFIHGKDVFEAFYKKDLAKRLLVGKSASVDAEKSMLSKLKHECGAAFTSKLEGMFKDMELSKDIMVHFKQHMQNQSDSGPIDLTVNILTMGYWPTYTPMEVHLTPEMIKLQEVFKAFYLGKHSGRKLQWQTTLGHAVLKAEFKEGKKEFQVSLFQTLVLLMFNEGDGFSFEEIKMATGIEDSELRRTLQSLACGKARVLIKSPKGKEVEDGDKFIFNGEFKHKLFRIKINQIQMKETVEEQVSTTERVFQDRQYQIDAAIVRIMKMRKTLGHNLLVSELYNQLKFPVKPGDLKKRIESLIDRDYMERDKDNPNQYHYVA
Sequence of CRBN (P62877 whole entry partner): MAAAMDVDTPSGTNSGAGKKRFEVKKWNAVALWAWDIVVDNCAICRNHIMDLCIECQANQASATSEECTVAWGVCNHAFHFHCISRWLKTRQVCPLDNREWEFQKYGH

Structure (SMILES)	auto-ubiquitination of CRBN [1]	inhibition of BTK [2]	B-cell proliferation and activation [3]
O=C1CCC(N2C(=O)c3ccccc3C2=O)C(=O)N1 (stereo not drawn) [thalidomide]	able to inhibit	–	–
C=CC(=O)Nc1cccc(Nc2nc(Nc3ccc(OCCOC)cc3)ncc2F)c1 [Compound AA, N-(3-(5-fluoro-2-(4-(2-methoxyethoxy)phenylamino)pyrimidin-4-ylamino)phenyl)acrylamide]	–	covalent, irreversible inhibition	found to inhibit
